{"source": "patent US6677373B2", "about": "“Polymorphic B form of 3-(cyclopropylmethoxy)-4-[4-(methylsulfonyl)phenyl]-5,5-dimethyl-5H-furan-2-one” (Merial Limited, priority 1999, dated 2004)", "format_in_all_cases": "physicochemical", "key": {"[1]": {"assay": "Solubility in methyltertiobutylether on recrystallization", "conditions": "solid at 6.3% weight in methyltertiobutylether", "text": "Recrystallization of polymorph A for purification purposes leaded to solubility problems in methyltertiobutylether."}, "[2]": {"assay": "Carr Index (compressibility index, flowability) of unmilled product", "text": "After crystallization and before micronization, the Carr Index of B form is lower than 10 (in %). The Carr Index CI is defined as: [formula] where P is the packed bulk density (g cm^−3), L is the loose bulk density (g cm^−3). CI is also know as a compressibility index. A low figure for CI corresponds to a high degree of flowability. The Carr Index way be calculated from Mercury Intrusion Porosimetry or measured by Tap—Tap."}, "[3]": {"assay": "Thermodynamic stability of the polymorphs, DSC (Differential Scanning Calorimetry)", "conditions": "for thermodynamic stability: compared with Polymorph A, monotropic system according to Burger's rule", "experimental": "an endothermal peak around 90-100° C. due to melting of A form,\nan exothermal peak corresponding to the transition A→B,\nan endothermal peak around 120° C. due to melting of B form,\na very small exothermal peak corresponding to the transition A→B,\nan endothermal peak due to melting of B form.\nTherefore, the transition A→B is under kinetic control as usual in case of polymorphism. The transition from A to B may also be followed by X-Ray under heating (FIG. 7)."}}}
{"smiles": "CC1(C)OC(=O)C(OCC2CC2)=C1c1ccc(S(C)(=O)=O)cc1", "note": "[3-(cyclopropylmethoxy)-4-(4-methylsulfonyl)phenyl-5,5-dimethylfuranone]", "values": [{"measurement": "solubility in methyltertiobutylether", "setting": "[1]", "result": "could no longer be solubilised"}]}
{"smiles": "CC1(C)OC(=O)C(OCC2CC2)=C1c1ccc(S(C)(=O)=O)cc1", "note": "[Polymorph A, 3-(cyclopropylmethoxy)-4-[4-(methylsulfonyl)phenyl]-5,5-dimethyl-5H-furan-2-one]", "values": [{"measurement": "Carr Index", "setting": "[2]; unmilled product, crystallisation process: Lab scale", "result": "26 to 27", "unit": "%"}, {"measurement": "Carr Index", "setting": "[2]; unmilled product, crystallisation process: Pilot scale", "result": "29 to 33", "unit": "%"}, {"measurement": "behaviour when heated (DSC)", "setting": "[3]; depending on the heating rate (40° C./mn, 2° C./mn)", "result": "transforms to form B"}]}
{"smiles": "CC1(C)OC(=O)C(OCC2CC2)=C1c1ccc(S(C)(=O)=O)cc1", "note": "[Polymorph B, 3-(cyclopropylmethoxy)-4-[4-(methylsulfonyl)phenyl]-5,5-dimethyl-5H-furan-2-one]", "values": [{"measurement": "Carr Index", "setting": "[2]; after crystallization and before micronization", "result": "lower than 10%"}, {"measurement": "flow characteristics", "setting": "[2]; compared with Polymorph A", "result": "better flow characteristics than Polymorph A"}, {"measurement": "Carr Index", "setting": "[2]; unmilled product, Recrystallisation in MTBE, Lab scale", "result": "2 to 3", "unit": "%"}, {"measurement": "Carr Index", "setting": "[2]; unmilled product, Recrystallisation in MTBE, Pilot scale", "result": "2 to 4", "unit": "%"}, {"measurement": "thermodynamic stability", "setting": "[3]", "result": "thermodynamically more stable than Polymorph A"}, {"measurement": "thermodynamic stability", "setting": "[3]; listed as B form", "result": "the most stable form"}]}
